pIC50: −log10 of the molar value. Like-named read-outs stand apart in the source and are kept apart here.
Key:
Type in all cases: cell-based
[1] = system: PC9 DCT (Del19+T790M+C797S) cells; experiment: Cell viability assay, PC9 cells with EGFR triple mutation; conditions: Homo sapiens, PC-9; Table 9; PC9 (Del + T790M + C797S), EGFR triple mutations; read-out: IC50 (half inhibitory concentration)
Source text: Construction of EGFR triple mutant cell line PC9 DCT (Dell9+T790M+C797S): The cDNA expressing human EGFR was cloned into pLVX vector, and exon 19 deletion mutation (746-750) and T790M mutation were introduced by point mutation and C797S mutation. Transferred into PC9 cells by lentiviral packaging. Cells stably expressing EGFR triple mutations were obtained by fluorescence screening.
The cDNA sequence expressing human EGFR was cloned into a pLVX vector (GFP^+), and then introduce the EGFR exon 19 deletion (746-750), exon 20 T790M and C797S mutations by were generated by site-directed mutagenesis. The PC9 cells were infected with lentivirus containing the indicated EGFR mutations, and the cells stably expressing EGFR triple mutation were obtained by fluorescence screening.
All of the half inhibitory concentrations (IC50) of these compounds of the present invention were determined with WST reagent from Fuyuan Biotec Company. The specific experiment procedures are as follows: Cancer cells were planted in 96-well-plate at the density of 3 000 cells per well with 100 μL RPMI1640 completed culture medium. In the next day, compounds with indicated concentrations were added to the cells, DMSO was used as the negative control and the EGFR TKIs were used to treat cells as the positive groups. After 72 hours drug treatment, cell viability was measured by using the WST reagent following the instructions. The growth inhibition curve of the compounds on cells were plotted by Prism GraphPad, and the compounds IC50 calculated from it.
The cell viability assays were taken to determine the anti-tumor activity of these indicated compounds in PC9 cells, which overexpressed Exon 19del+T790M+C797S triple mutant EGFR.

[2] = system: PC9 cells (EGFR Exon 19 del, non-small cell lung cancer cells); experiment: Cell viability assay (WST/CCK8), PC9 cells; conditions: Homo sapiens, PC-9, 72 hours, WST (CCK8), read-out: IC50 (half inhibitory concentration)
Summary of the method: (§1)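 Plated 3 000 cells/well in complete RPMI1640 the day before dosing; controls were DMSO (negative) and EGFR TKIs (positive).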

[3] = system: HCC827 cells (EGFR Exon19 del, non-small cell lung cancer cells); experiment: Cell viability assay (WST/CCK8), HCC827 cells; conditions: Homo sapiens, HCC827, 72 h, HCC827 (Exon19 Del), 72 hours, WST (CCK8), read-out: IC50 (half inhibitory concentration)
Summary of the method: as §1

[4] = system: BT474 cells (HER2 positive breast cancer cells); experiment: Cell viability assay (CCK8), BT474 cells; conditions: Homo sapiens, BT-474, Table 10, BT474, 72 hours, read-out: IC50 (half inhibitory concentration)
Summary of the method: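 HER2-overexpressing BT474 cells in RPMI1640 were exposed to compounds for 72 hours over 10 concentrations (3-fold dilution, top 10 μM). Viability was measured with CCK8 reagent against a DMSO control, and IC50 was taken from growth inhibition curves.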

[5] = biological target: T1, EGFR (L858R+T790M) in H1975 cells (Homo sapiens, UniProt P00533, L858R/T790M); experiment: Western blot of EGFR protein level (degradation), H1975 cells; conditions: 16 hours; for EGFR degradation (EGFR level, western blot): H1975 cells, 1, 10, 50, 100, 500 nM; for DC50: H1975 cells, western blot
T1 construct: determined in H1975 cells with the EGFR L858R+T790M mutation; endogenous in cells; host or cells: H1975
T1 sequence (P00533 25-1210 T790M/L858R): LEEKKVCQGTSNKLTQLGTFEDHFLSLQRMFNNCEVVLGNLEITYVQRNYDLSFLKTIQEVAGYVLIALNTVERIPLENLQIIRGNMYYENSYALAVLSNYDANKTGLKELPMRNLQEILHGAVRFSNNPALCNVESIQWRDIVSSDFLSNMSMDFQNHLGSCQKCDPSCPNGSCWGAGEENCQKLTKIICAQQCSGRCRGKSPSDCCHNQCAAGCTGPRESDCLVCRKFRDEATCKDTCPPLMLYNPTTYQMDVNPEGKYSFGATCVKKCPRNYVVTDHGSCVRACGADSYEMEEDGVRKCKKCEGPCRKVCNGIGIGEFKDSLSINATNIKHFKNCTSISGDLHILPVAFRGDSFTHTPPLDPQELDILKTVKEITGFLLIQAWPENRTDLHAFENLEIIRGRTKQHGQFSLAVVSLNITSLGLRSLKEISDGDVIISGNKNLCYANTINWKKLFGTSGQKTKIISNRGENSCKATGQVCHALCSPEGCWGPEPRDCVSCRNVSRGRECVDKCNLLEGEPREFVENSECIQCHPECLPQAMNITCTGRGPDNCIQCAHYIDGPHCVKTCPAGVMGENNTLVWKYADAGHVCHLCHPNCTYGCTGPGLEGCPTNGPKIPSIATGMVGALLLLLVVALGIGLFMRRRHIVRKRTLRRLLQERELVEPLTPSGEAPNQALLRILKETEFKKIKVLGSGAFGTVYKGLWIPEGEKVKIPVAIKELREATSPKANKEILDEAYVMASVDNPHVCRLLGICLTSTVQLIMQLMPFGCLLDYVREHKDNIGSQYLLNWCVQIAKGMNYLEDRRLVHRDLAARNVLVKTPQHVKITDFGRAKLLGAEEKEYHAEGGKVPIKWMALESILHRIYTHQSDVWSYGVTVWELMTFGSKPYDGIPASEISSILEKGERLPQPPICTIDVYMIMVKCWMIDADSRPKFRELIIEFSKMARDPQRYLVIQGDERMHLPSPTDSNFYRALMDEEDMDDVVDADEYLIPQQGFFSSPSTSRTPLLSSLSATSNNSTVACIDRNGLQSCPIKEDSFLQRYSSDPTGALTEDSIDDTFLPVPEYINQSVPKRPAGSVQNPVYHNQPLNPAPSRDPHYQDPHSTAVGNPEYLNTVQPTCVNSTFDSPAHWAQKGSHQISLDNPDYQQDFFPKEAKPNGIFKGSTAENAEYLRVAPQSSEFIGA
Procedure: Cancer cells were planted in 12-well-plate at the density of 0.15 million cells per well with 1 mL RPMI1640 completed culture medium. Compounds with different concentrations (DMSO as a solution system, and 1 μL of compounds of different concentrations was added to 1 mL of the cell culture medium) were added to the cells planted one day before. 16 hours after treated, the medium was discarded and the cells were washed with precooled PBS. The cells were placed on ice and treated with RIPA protein lysis buffer containing halt protease and phosphatase inhibitor. After centrifugation at 10000 rpm at 4° C. for 10 minutes, the supernatant was collected. The same amount of proteins were added into 4×SDS loading buffer and heated at 95° C. for 5 minutes for denaturation, and the samples were stored at −20° C. after denaturation, or directly conducted protein electrophoresis. The 4-20% gradient preformed Electrophoretic gels were purchased from Kingsy. The electrophoresis tank and related components were purchased from Bio-rad company, and the electrophoresis condition was isobaric 120V for 2 hours. PVDF membrane was used for the transmembrane, and the whole transmembrane process was carried out on ice with a constant current of 0.4 amperes for an hour. The membrane was blocked with 5% skimmed milk dilution with TBST buffer. Refer to the corresponding antibody instructions for the specific steps of immunoblotting.
The degradation efficacy of the dacomitinib-based compounds on EGFR was determined in HCC827 and H1975 cell lines, which harboring EGFR Exon 19del and EGFR L858R+T790M mutations respectively.
In FIG. 2, concentration-dependent degradation assays were performed on non-small cell lung cancer cell line H1975 (T790M-mutant cell line, the most common mutation type of first-generation EGFR inhibitors). […] The DC50 of compounds SIAIS262032 and SIAIS262037 are both about 50 nM, which provides great potential for drug development to overcome drug resistance caused by EGFR T790M mutation.
The degradation efficacy of the canertinib-based compounds on EGFR was determined in H1975 cells with the EGFR L858R+T790M mutation.
The H1975 cells were treated with the PROTADs with different concentrations (1, 10, 50, 100, 500 nM) for 16 hours, and then the western blot assay was taken to estimate the EGFR levels of the cell lysates in each group. […] The DC50 of SIAIS262125 and SIAIS262182 are both less than 10 nM, much better than canertinib, which provides great potential for drug development to overcome drug resistance caused by EGFR T790M mutation.

[6] = system: PC9BracA1 (EGFR Exon 19 del+T790M, non-small cell lung cancer cells); experiment: Cell viability assay (WST/CCK8), PC9Brac1 cells; conditions: PC9Brac1 (Ex19del + T790M), 72 hours, WST; read-out: IC50 (half inhibitory concentration)
Summary of the method: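 Cells seeded at 3 000 per well in RPMI1640 complete medium, dosed next day with compounds at indicated concentrations (DMSO negative control, EGFR TKIs as positive control).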

[7] = Table 3, poziotinib-based compounds, PC9 (Exon 19 Del)
[8] = Table 3, poziotinib-based compounds

Structure (SMILES) | pIC50 [1] | pIC50 [2, 7] | pIC50 [3, 8] | pIC50 [4] | pIC50 ([2]; PC9 (Exon19 Del)) | EGFR degradation (EGFR level, western blot) [5] | DC50 [5] [nM] | pIC50 [3] | pIC50 [6]
COc1cc2ncnc(Nc3ccc(Cl)c(Cl)c3F)c2cc1OC1CCNCC1 [Poziotinib derivative A (SIAIS219149), N-(3,4-dichloro-2-fluorophenyl)-7-methoxy-6-(piperidin-4-yloxy)quinazolin-4-amine] | 8.28 | 7.77 | 8.15 | 7.09 |  |  |  |  | 
COc1cc2ncnc(Nc3ccc(Cl)c(Cl)c3F)c2cc1OC1CCN(C(=O)CCSc2cccc3c2CN(C2CCC(=O)NC2=O)C3=O)CC1 (stereo not drawn) [SIAIS219165, 3-(4-((3-(4-((4-((3,4-dichloro-2-fluorophenyl)amino)-7-methoxyquinazolin-6-yl)oxy)piperidin-1-yl)-3-oxopropyl)thio)-1-oxoisoindolin-2-yl)piperidine-2,6-dione] | 8.34 | 8.52 | 7.64 | 8.57 |  |  |  |  | 
COc1cc2ncnc(Nc3ccc(Cl)c(Cl)c3F)c2cc1OC1CCN(C(=O)CSc2cccc3c2C(=O)N(C2CCC(=O)NC2=O)C3=O)CC1 (stereo not drawn) [SIAIS249014, 4-((2-(4-((4-((3,4-dichloro-2-fluorophenyl)amino)-7-methoxyquinazolin-6-yl)oxy)piperidin-1-yl)-2-oxoethyl)thio)-2-(2,6-dioxopiperidin-3-yl)isoindoline-1,3-dione] | 8.74 |  | 7.29 |  |  |  |  |  | 
COc1cc2ncnc(Nc3ccc(F)c(Cl)c3)c2cc1NC(=O)/C=C/CN1CCC(N2CCN(C(=O)CCCCCSc3cccc4c3C(=O)N(C3CCC(=O)NC3=O)C4=O)CC2)CC1 (stereo not drawn) [SIAIS262032, (E)-N-(4-((3-chloro-4-fluorophenyl)amino)-7-methoxyquinazolin-6-yl)-4-(4-(4-(6-((2-(2,6-dioxopiperidin-3-yl)-1,3-dioxoisoindolin-4-yl)thio)hexanoyl)piperazin-1-yl)piperidin-1-yl)but-2-enamide] |  |  |  |  | 7.36 | obvious EGFR degradation efficacy | ~50 | 8.48 | 6.36
COc1cc2ncnc(Nc3ccc(F)c(Cl)c3)c2cc1NC(=O)/C=C/CN1CCC(N2CCN(C(=O)CCCCCCNc3cccc4c3C(=O)N(C3CCC(=O)NC3=O)C4=O)CC2)CC1 (stereo not drawn) [SIAIS262037, (E)-N-(4-((3-chloro-4-fluorophenyl)amino)-7-methoxyquinazolin-6-yl)-4-(4-(4-(7-((2-(2,6-dioxopiperidin-3-yl)-1,3-dioxoisoindolin-4-yl)amino)heptanoyl)piperazin-1-yl)piperidin-1-yl)but-2-enamide] |  |  |  | 9.05 | 8.68 | obvious EGFR degradation efficacy | ~50 | 8.80 | 

The remaining lines, values ahead:

pIC50 [1] | pIC50 [2, 7] | pIC50 [3, 8] | pIC50 [4] | pIC50 ([2]; PC9 (Exon19 Del)) | EGFR degradation (EGFR level, western blot) [5] | DC50 [5] [nM] | pIC50 [3] | pIC50 [6] | Structure (SMILES)
8.62 | 7.42 | 8.09 | 7.44 |  |  |  |  |  | COc1cc2ncnc(Nc3ccc(Cl)c(Cl)c3F)c2cc1OC1CCN(C(=O)CNc2cccc3c2C(=O)N(C2CCC(=O)NC2=O)C3=O)CC1 (stereo not drawn) [SIAIS219177, 4-((2-(4-((4-((3,4-dichloro-2-fluorophenyl)amino)-7-methoxyquinazolin-6-yl)oxy)piperidin-1-yl)-2-oxoethyl)amino)-2-(2,6-dioxopiperidin-3-yl)isoindoline-1,3-dione]
8.48 |  | 7.57 |  |  |  |  |  |  | COc1cc2ncnc(Nc3ccc(Cl)c(Cl)c3F)c2cc1OC1CCN(C(=O)CCCCNc2cccc3c2C(=O)N(C2CCC(=O)NC2=O)C3=O)CC1 (stereo not drawn) [SIAIS219180, 4-((5-(4-((4-((3,4-dichloro-2-fluorophenyl)amino)-7-methoxyquinazolin-6-yl)oxy)piperidin-1-yl)-5-oxopentyl)amino)-2-(2,6-dioxopiperidin-3-yl)isoindoline-1,3-dione]
8.42 |  | 7.64 |  |  |  |  |  |  | COc1cc2ncnc(Nc3ccc(Cl)c(Cl)c3F)c2cc1OC1CCN(C(=O)CCCCCNc2cccc3c2C(=O)N(C2CCC(=O)NC2=O)C3=O)CC1 (stereo not drawn) [SIAIS219181, 4-((6-(4-((4-((3,4-dichloro-2-fluorophenyl)amino)-7-methoxyquinazolin-6-yl)oxy)piperidin-1-yl)-6-oxohexyl)amino)-2-(2,6-dioxopiperidin-3-yl)isoindoline-1,3-dione]
8.33 | 6.89 | 7.34 | 7.06 |  |  |  |  |  | COc1cc2ncnc(Nc3ccc(Cl)c(Cl)c3F)c2cc1OC1CCN(C(=O)CCSc2cccc3c2C(=O)N(C2CCC(=O)NC2=O)C3=O)CC1 (stereo not drawn) [SIAIS249015, 4-((3-(4-((4-((3,4-dichloro-2-fluorophenyl)amino)-7-methoxyquinazolin-6-yl)oxy)piperidin-1-yl)-3-oxopropyl)thio)-2-(2,6-dioxopiperidin-3-yl)isoindoline-1,3-dione]
8.82 |  | 7.54 |  |  |  |  |  |  | COc1cc2ncnc(Nc3ccc(Cl)c(Cl)c3F)c2cc1OC1CCN(C(=O)CCCSc2cccc3c2C(=O)N(C2CCC(=O)NC2=O)C3=O)CC1 (stereo not drawn) [SIAIS249016, 4-((4-(4-((4-((3,4-dichloro-2-fluorophenyl)amino)-7-methoxyquinazolin-6-yl)oxy)piperidin-1-yl)-4-oxobutyl)thio)-2-(2,6-dioxopiperidin-3-yl)isoindoline-1,3-dione]
8.66 |  | 7.64 |  |  |  |  |  |  | COc1cc2ncnc(Nc3ccc(Cl)c(Cl)c3F)c2cc1OC1CCN(C(=O)CCCCSc2cccc3c2C(=O)N(C2CCC(=O)NC2=O)C3=O)CC1 (stereo not drawn) [SIAIS249017, 4-((5-(4-((4-((3,4-dichloro-2-fluorophenyl)amino)-7-methoxyquinazolin-6-yl)oxy)piperidin-1-yl)-5-oxopentyl)thio)-2-(2,6-dioxopiperidin-3-yl)isoindoline-1,3-dione]

From patent US12564638B2 (SHANGHAITECH UNIVERSITY, priority 2019, dated 2026)
